The text below walks through data of patent publication US11590139B2, “Substituted aminopurine compounds, compositions thereof, and methods of treatment therewith” (Signal Pharmaceuticals, LLC, priority 2014, dated 2023).

pIC50: −log10 of the molar value. Where only a bound is given, the exact number is not on record here.

In the first experiment the test system is Lox-IMVI melanoma cell line. Description: Lox-IMVI anti-proliferative assay (growth inhibition, Cell Titer-Glo). In kind it is cell-based, human. The following applies: Homo sapiens; IC50 activity level in the cell-based Lox-IMVI anti-proliferative assay; read-out: Activity. As for the experimental part:
Determination of the Growth Inhibitory Effect of Aminopurine Compounds. The Lox-IMVI melanoma cell line (Source: NCI-DCTD, catalog No. 0507283) was maintained and tested in RPMI+10% FBS. The seeding density for the cell line was optimized to ensure assay linearity in 384-well plates.
Increasing concentrations of Aminopurine Compound (0.5 nM to 10 μM) were spotted in a 10-point serial dilution fashion (3-fold dilution) in duplicate within the plate via an acoustic dispenser (EDC ATS-100) into an empty 384-well plate. The dimethyl sulfoxide (DMSO) concentration was kept constant for a final assay concentration of 0.2% DMSO. Prior to testing, cells were grown and expanded in culture flasks to provide sufficient amounts of starting material. Cells were then diluted to their desired densities and added directly to the compound-spotted 384-well plates. Cells were allowed to grow for 72 hours in 5% CO2 at 37° C. At the time when exposure of cells to compound began (t0), initial cell number was assessed via a viability assay (Cell Titer-Glo) by quantifying the level of luminescence generated by adenosine-5′-triphosphate (ATP) present in viable cells. After 72 hours, cell viability of compound-treated cells was assessed via Cell Titer-Glo Luminescent Cell Viability Assay (Promega Corporation, Madison, Wis.) and read for luminescence.
All data was normalized and represented as a percentage of the DMSO-treated control cells after 72 h. Results were expressed as a IC50 value, which is the compound concentration required to inhibit 50% of the untreated control cells during the 72 hours of treatment.
A Four Parameter Logistic Model (Sigmoidal Dose-Response Model) was used to determine the compound's IC50. y=(A+((B−A)/(1+((C/x)^D))))
wherein: • A=YMin • B=YMax • C=EC50 • D=Hill Slope • IC50 is the compound concentration when Y=50% of DMSO control • Y=Luminescence unit
All inhibition curves were processed and evaluated using XLFit and Activity Base (IDBS).
(ATP-based viability assays read luminescence as a measure of living cells.)
For `NC(=O)[C@H]1CC[C@@H](n2c(Nc3c(F)cc(F)cc3Cl)nc3cnc(N[C@@H]4CCCOC4)nc32)CC1` [Example 187, (1S,4s)-4-(8-(2-chloro-4,6-difluorophenylamino)-2-((R)-tetrahydro-2H-pyran-3-ylamino)-9H-purin-9-yl)cyclohexanecarboxamide], the pIC50 was less than 6.00.

For the molecule `C[C@@H]1CC[C@@H](Nc2ncc3nc(Nc4c(F)cc(F)cc4F)n([C@H]4CC[C@@H](C(N)=O)CC4)c3n2)C[C@H]1O` [Example 341, (1S,4s)-4-(2-((1R,3R,4R)-3-hydroxy-4-methylcyclohexylamino)-8-(2,4,6-trifluorophenylamino)-9H-purin-9-yl)cyclohexanecarboxamide], the pIC50 is less than 6.00.

As for `NC(=O)[C@H]1CC[C@@H](n2c(Nc3c(F)cc(Cl)cc3Cl)nc3cnc(N[C@@H]4CCCOC4)nc32)CC1` [Example 190, (1S,4s)-4-(8-(2,4-dichloro-6-fluorophenylamino)-2-((R)-tetrahydro-2H-pyran-3-ylamino)-9H-purin-9-yl)cyclohexanecarboxamide], the pIC50 is less than 6.00.

With `Cc1cc(Cl)cc(Cl)c1Nc1nc2cnc(NC3CCOCC3)nc2n1[C@H]1CC[C@@H](C(N)=O)CC1` [Example 103, (1s,4s)-4-(8-(2,4-dichloro-6-methylphenylamino)-2-(tetrahydro-2H-pyran-4-ylamino)-9H-purin-9-yl)cyclohexanecarboxamide], the pIC50 was less than 6.00.

On to `N#Cc1cc(F)c(Nc2nc3cnc(NC4CCC(F)(F)CC4)nc3n2[C@H]2CC[C@@H](C(N)=O)CC2)c(Cl)c1` [Example 378, (1s,4s)-4-(8-(2-chloro-4-cyano-6-fluorophenylamino)-2-(4,4-difluorocyclohexylamino)-9H-purin-9-yl)cyclohexanecarboxamide], for which the pIC50 was 6.30 to 6.60.

In the case of `NC(=O)[C@H]1CC[C@@H](n2c(Nc3c(F)cccc3F)nc3cnc(NC4CCC(F)(F)CC4)nc32)CC1` [Example 289, (1s,4s)-4-(2-(4,4-difluorocyclohexylamino)-8-(2,6-difluorophenylamino)-9H-purin-9-yl)cyclohexanecarboxamide], the pIC50 is less than 6.00.

In the case of `NC(=O)[C@H]1CC[C@@H](n2c(Nc3c(F)cc(Cl)cc3F)nc3cnc(N[C@@H]4CCC[C@H]4O)nc32)CC1` [Example 257, (1S,4s)-4-(8-(4-chloro-2,6-difluorophenylamino)-2-((1R,2R)-2-hydroxycyclopentylamino)-9H-purin-9-yl)cyclohexanecarboxamide], the pIC50 is 6.00 to 6.30.

As for `NC(=O)[C@H]1CC[C@@H](n2c(Nc3c(F)cc(Cl)cc3Cl)nc3cnc(NC4COCC4O)nc32)CC1` (stereo partly shown) [Example 182, (1s,4s)-4-(8-(2,4-dichloro-6-fluorophenylamino)-2-(4-hydroxytetrahydrofuran-3-ylamino)-9H-purin-9-yl)cyclohexanecarboxamide], the pIC50 was less than 6.00.

As to `NC(=O)[C@H]1CC[C@@H](n2c(Nc3c(Cl)cccc3Cl)nc3cnc(NC4CCC4)nc32)CC1` [Example 51], the pIC50 was 6.00 to 6.30.

As to `NC(=O)[C@H]1CC[C@@H](n2c(Nc3ccc(Cl)cc3Cl)nc3cnc(N[C@@H]4CC[C@@H](O)C4)nc32)CC1` [Example 219, (1S,4s)-4-(8-(2,4-dichlorophenylamino)-2-((1R,3R)-3-hydroxycyclopentylamino)-9H-purin-9-yl)cyclohexanecarboxamide], the pIC50 was less than 6.00.

Turning to `NC(=O)[C@H]1CC[C@@H](n2c(Nc3c(F)cccc3Cl)nc3cnc(NC4CCN(c5cccnc5)CC4)nc32)CC1` [Example 107, (1s,4s)-4-(8-(2-chloro-6-fluorophenylamino)-2-(1-(pyridin-3-yl)piperidin-4-ylamino)-9H-purin-9-yl)cyclohexanecarboxamide], the pIC50 was less than 6.00.

In the case of `N#Cc1cc(F)c(Nc2nc3cnc(NC4CCCC4)nc3n2[C@H]2CC[C@@H](C(N)=O)CC2)c(Cl)c1` [Example 369, (1s,4s)-4-(8-(2-chloro-4-cyano-6-fluorophenylamino)-2-(cyclopentylamino)-9H-purin-9-yl)cyclohexanecarboxamide], the pIC50 was 6.30 to 6.60.

On to `NC(=O)[C@H]1CC[C@@H](n2c(Nc3c(F)cc(Cl)cc3F)nc3cnc(NC4CCCC4)nc32)CC1` [Example 120, (1s,4s)-4-(8-(4-chloro-2,6-difluorophenylamino)-2-(cyclopentylamino)-9H-purin-9-yl)cyclohexanecarboxamide], for which the pIC50 was 6.30 to 6.60.

For `NC(=O)[C@H]1CC[C@@H](n2c(Nc3c(F)cc(Cl)cc3Cl)nc3cnc(N[C@@H]4CCOC4)nc32)CC1` [Example 223, (1S,4s)-4-(8-(2,4-dichloro-6-fluorophenylamino)-2-((R)-tetrahydrofuran-3-ylamino)-9H-purin-9-yl)cyclohexanecarboxamide], the pIC50 is 6.30 to 6.60.

Consider `NC(=O)[C@H]1CC[C@@H](n2c(Nc3ccc(Cl)c(F)c3F)nc3cnc(NC4CC5(COC5)C4)nc32)CC1` [Example 194, (1s,4s)-4-(2-(2-oxaspiro[3.3]heptan-6-ylamino)-8-(4-chloro-2,3-difluorophenylamino)-9H-purin-9-yl)cyclohexanecarboxamide], for which the pIC50 is less than 6.00.

Still in this experiment, the particulars now being: Homo sapiens; Lox-IMVI anti-proliferative assay, IC50 activity level; read-out: Activity.
As to `C[C@]1(C(N)=O)CC[C@@H](n2c(Nc3c(F)cc(Cl)cc3F)nc3cnc(N[C@@H]4CCC[C@H](O)C4)nc32)CC1` [Example 566, (1S,4s)-4-(8-(4-chloro-2,6-difluorophenylamino)-2-((1R,3S)-3-hydroxycyclohexylamino)-9H-purin-9-yl)-1-methylcyclohexanecarboxamide], the pIC50 is 6.30 to 6.60.

With `C[C@@H]1COCC[C@H]1Nc1ncc2nc(Nc3c(F)cc(Cl)cc3Cl)n([C@H]3CC[C@@H](C(N)=O)CC3)c2n1` [Example 503, (1S,4s)-4-(8-(2,4-dichloro-6-fluorophenylamino)-2-((3S,4R)-3-methyltetrahydro-2H-pyran-4-ylamino)-9H-purin-9-yl)cyclohexanecarboxamide], the pIC50 is more than 6.60.

For the molecule `C[C@H]1COCC[C@@H]1Nc1ncc2nc(Nc3c(F)cc(F)cc3F)n([C@H]3CC[C@@H](C(N)=O)CC3)c2n1` [Example 510, (1R,4s)-4-(2-((3R,4S)-3-methyltetrahydro-2H-pyran-4-ylamino)-8-(2,4,6-trifluorophenylamino)-9H-purin-9-yl)cyclohexanecarboxamide], the pIC50 is less than 6.00.

For the molecule `C[C@@H]1COCC[C@H]1Nc1ncc2nc(Nc3c(F)cc(Cl)cc3F)n([C@H]3CC[C@@H](C(N)=O)CC3)c2n1` [Example 532, (1S,4s)-4-(8-(4-chloro-2,6-difluorophenylamino)-2-((3S,4R)-3-methyltetrahydro-2H-pyran-4-ylamino)-9H-purin-9-yl)cyclohexanecarboxamide], the pIC50 was 6.30 to 6.60.

Regarding `C[C@]1(C(N)=O)CC[C@@H](n2c(Nc3c(F)cc(C#N)cc3Cl)nc3cnc(NC4CCCC4)nc32)CC1` [Example 575, (1s,4s)-4-(8-(2-chloro-4-cyano-6-fluorophenylamino)-2-(cyclopentylamino)-9H-purin-9-yl)-1-methylcyclohexanecarboxamide], the pIC50 was more than 6.60.

On to `N#Cc1cc(F)c(Nc2nc3cnc(N[C@@H]4CCOC4)nc3n2[C@H]2CC[C@@H](C(N)=O)CC2)c(F)c1` [Example 529, (1S,4s)-4-(8-(4-cyano-2,6-difluorophenylamino)-2-((R)-tetrahydrofuran-3-ylamino)-9H-purin-9-yl)cyclohexanecarboxamide], for which the pIC50 was less than 6.00.

Staying with this experiment, now noted: Homo sapiens; Lox-IMVI melanoma cell line, anti-proliferative assay; read-out: Activity (IC50 activity level).
Turning to `N#Cc1cc(F)c(Nc2nc3cnc(NC[C@@H]4CCCC[C@H]4O)nc3n2[C@H]2CC[C@@H](C(N)=O)CC2)c(Cl)c1` [Example 664, (1R,4s)-4-(8-(2-chloro-4-cyano-6-fluorophenylamino)-2-(((1S,2R)-2-hydroxycyclohexyl)methylamino)-9H-purin-9-yl)cyclohexanecarboxamide], the pIC50 was less than 6.00.

Take `CC1(C)COCC[C@H]1Nc1ncc2nc(Nc3c(F)cc(Cl)cc3F)n([C@H]3CC[C@@H](C(N)=O)CC3)c2n1` [Example 786, (1S,4s)-4-(8-(4-chloro-2,6-difluorophenylamino)-2-((R)-3,3-dimethyltetrahydro-2H-pyran-4-ylamino)-9H-purin-9-yl)cyclohexanecarboxamide]: the pIC50 was less than 6.00.

As for `Cc1ccc(S(=O)(=O)N2CCC[C@@H](Nc3ncc4nc(Nc5c(Cl)cc(F)cc5Cl)n([C@H]5CC[C@@H](C(N)=O)CC5)c4n3)C2)cc1` [Example 794, (1S,4s)-4-(8-(2,6-dichloro-4-fluorophenylamino)-2-((R)-1-tosylpiperidin-3-ylamino)-9H-purin-9-yl)cyclohexanecarboxamide], the pIC50 is less than 6.00.

As to `CS(=O)(=O)N1CCC[C@@H](Nc2ncc3nc(Nc4c(F)cc(Cl)cc4Cl)n([C@H]4CC[C@@H](C(N)=O)CC4)c3n2)C1` [Example 701, (1S,4s)-4-(8-(2,4-dichloro-6-fluorophenylamino)-2-((R)-1-(methylsulfonyl)piperidin-3-ylamino)-9H-purin-9-yl)cyclohexanecarboxamide], the pIC50 was 6.00 to 6.30.
